# Laboratory results reported in patent US10125134B2 (Mirati Therapeutics, Inc., priority 2016, dated 2018).
# Structures can show the parent of a compound that is named as a salt. Where two headings read alike, the source gives them in different places.
# What was measured:
# KRas G12C = KRas G12C (Homo sapiens, UniProt P01116, C118S/C51S/C80L/G12C); assay: KRas G12C Modification Assay (LCMS detection of covalent adduct); assay type: binding; conditions: normalized percent of control; tested at 5 μM concentration for 3 hours
# How it was run: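 Cys-light KRas G12C mutant protein incubated with compound in K-Ras assay buffer, reactions quenched at set time points with 25 mM acetic acid and analysed by intact-protein LC/MS on a C-3 column. Deconvoluted mass heights expressed as percent of control (POC) relative to compound-free protein.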
# [1] = tested on: NCI-H358 cells (express KRas G12C), Phospho-ERK; assay: Cellular inhibition of KRas G12C: Phospho-ERK in NCI-H358 cells; assay type: cell-based; conditions: pERK(Thr202/Tyr204) normalized with GAPDH, NCI-H358 cells, 3 hours, read-out: IC50
# How it was run: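 IC50 derived by 4-parameter fit of GAPDH-normalized pERK(Thr202/Tyr204) signal, as percent of DMSO control. Signal came from in-cell immunodetection with infrared secondaries after 3 h compound exposure of KRas G12C NCI-H358 cells at 0.5% DMSO.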
POC (KRas G12C),SMILES,"IC50 ([1]; Homo sapiens, NCI-H358, 3 h)",IC50 [1]
C (“C”>50% POC),"C=CC(=O)N1CCN(c2nc(OC[C@@H]3CCCN3C)nc3c2CCN(c2cccc(C)c2C)C3)C[C@@H]1CC#N [Example 393, 2-((S)-1-acryloyl-4-(7-(2,3-dimethylphenyl)-2-(((S)-1-methylpyrrolidin-2-yl)methoxy)-5,6,7,8-tetrahydropyrido[3,4-d]pyrimidin-4-yl)piperazin-2-yl)acetonitrile]",0.0001 to 1 µM,
C (“C”>50% POC),"C=CC(=O)N1CCN(c2nc(OC[C@@H]3CCCN3C)nc3c2CCN(c2cccc4c(F)cccc24)C3)CC1CC#N (stereo partly drawn) [Example 287, 2-[4-[7-(5-fluoro-1-naphthyl)-2-[[(2S)-1-methylpyrrolidin-2-yl]methoxy]-6,8-dihydro-5H-pyrido[3,4-d]pyrimidin-4-yl]-1-prop-2-enoyl-piperazin-2-yl]acetonitrile]",,0.0001 to 1 µM
C (“C”>50% POC),"C=CC(=O)N1CCN(c2nc(OC[C@@H]3CCCN3C)nc3c2CCN(c2cccc4cc(F)ccc24)C3)CC1CC#N (stereo partly drawn) [Example 259, 2-[4-[7-(6-fluoro-1-naphthyl)-2-[[(2S)-1-methylpyrrolidin-2-yl]methoxy]-6,8-dihydro-5H-pyrido[3,4-d]pyrimidin-4-yl]-1-prop-2-enoyl-piperazin-2 yl]acetonitrile]",0.0001 to 1 µM,
C (“C”>50% POC),"C=CC(=O)N1CCN(c2nc(OC[C@@H]3CCCN3C)nc3c2CCN(c2cccc4ccc(F)cc24)C3)C[C@@H]1CC#N [Example 333, 2-[(2S)-4-[7-(7-fluoro-1-naphthyl)-2-[[(2S)-1-methylpyrrolidin-2-yl]methoxy]-6,8-dihydro-5H-pyrido[3,4-d]pyrimidin-4-yl]-1-prop-2-enoyl-piperazin-2-yl]acetonitrile]",0.0001 to 1 µM,
C (“C”>50% POC),"C=CC(=O)N1CCN(c2nc(OC[C@@H]3CCCN3C)nc3c2CCN(c2cccc4ccncc24)C3)C[C@@H]1CC#N [Example 429, 2-((S)-1-acryloyl-4-(7-(isoquinolin-8-yl)-2-(((S)-1-methylpyrrolidin-2-yl)methoxy)-5,6,7,8-tetrahydropyrido[3,4-d]pyrimidin-4-yl)piperazin-2-yl)acetonitrile]",0.0001 to 1 µM,
A (“A”≤25% POC),"C=CC(=O)N1CCN(c2nc(OC[C@@H]3CCCN3C)nc3c2CCN(c2cccc4ccc(OC)cc24)C3)CC1CC#N (stereo partly drawn) [Example 255, 2-[4-[7-(7-methoxy-1-naphthyl)-2-[[(2S)-1-methylpyrrolidin-2-yl]methoxy]-6,8-dihydro-5H-pyrido[3,4-d]pyrimidin-4-yl]-1-prop-2-enoyl-piperazin-2-yl]acetonitrile]",> 1 µM,
C (“C”>50% POC),"C=CC(=O)N1CCN(c2nc(OC[C@H]3CCCN3C)nc3c2CCN(c2cc(O)cc4ccccc24)C3)C[C@@H]1CC#N [Example 344, 2-[(2S)-4-[7-(3-hydroxy-1-naphthyl)-2-[[(2R)-1-methylpyrrolidin-2-yl]methoxy]-6,8-dihydro-5H-pyrido[3,4-d]pyrimidin-4-yl]-1-prop-2-enoyl-piperazin-2-yl]acetonitrile]",0.0001 to 1 µM,
C (“C”>50% POC),"C=CC(=O)N1CCN(c2nc(OC[C@@H]3CCCN3C)nc3c2CCN(c2cccc(F)c2C(F)(F)F)C3)C[C@@H]1CC#N [Example 328, 2-((S)-1-acryloyl-4-(7-(3-fluoro-2-(trifluoromethyl)phenyl)-2-(((S)-1-methylpyrrolidin-2-yl)methoxy)-5,6,7,8-tetrahydropyrido[3,4-d]pyrimidin-4-yl)piperazin-2-yl)acetonitrile]",0.0001 to 1 µM,

# The next lines start with the compound.
SMILES,POC (KRas G12C),"IC50 ([1]; Homo sapiens, NCI-H358, 3 h)",IC50 [1]
"C=CC(=O)N1CCN(c2nc(O[C@H](CC)CN(C)C)nc3c2CCN(c2cc(O)cc4ccccc24)C3)CC1 [Example 60, (R)-1-(4-(2-((1-(dimethylamino)butan-2-yl)oxy)-7-(3-hydroxynaphthalen-1-yl)-5,6,7,8-tetrahydropyrido[3,4-d]pyrimidin-4-yl)piperazin-1-yl)prop-2-en-1-one]",C (“C”>50% POC),> 1 µM,
"C=CC(=O)N1CCN(c2nc(OCCCCN3CCOCC3)nc3c2CCN(c2cc(O)cc4ccccc24)C3)CC1 [Example 35, 1-(4-(7-(3-hydroxynaphthalen-1-yl)-2-(4-morpholinobutoxy)-5,6,7,8-tetrahydropyrido[3,4-d]pyrimidin-4-yl)piperazin-1-yl)prop-2-en-1-one trifluoroacetate]",C (“C”>50% POC),> 1 µM,
"C=CC(=O)N1CCN(c2nc(OC[C@@H]3CCCN3C)nc3c2CCN(c2cccc4ccccc24)C3)[C@@H](C#N)C1 [Example 462, (R)-4-acryloyl-1-(2-(((S)-1-methylpyrrolidin-2-yl)methoxy)-7-(naphthalen-1-yl)-5,6,7,8-tetrahydropyrido[3,4-d]pyrimidin-4-yl)piperazine-2-carbonitrile]",C (“C”>50% POC),> 1 µM,
"C=CC(=O)N1CCN(c2nc(OCCCN3CCS(=O)(=O)CC3)nc3c2CCN(c2cc(O)cc4ccccc24)C3)CC1 [Example 34, 1-(4-(2-(3-(1,1-dioxidothiomorpholino)propoxy)-7-(3-hydroxynaphthalen-1-yl)-5,6,7,8-tetrahydropyrido[3,4-d]pyrimidin-4-yl)piperazin-1-yl)prop-2-en-1-one trifluoroacetate]",A (“A”≤25% POC),> 1 µM,
"CN(C)C/C=C/C(=O)N1CCN(c2nc(OC[C@H]3CCCN3C)nc3c2CCN(c2cccc(Cl)c2C(F)(F)F)C3)C[C@@H]1CC#N [Example 422, 2-((S)-4-(7-(3-chloro-2-(trifluoromethyl)phenyl)-2-(((R)-1-methylpyrrolidin-2-yl)methoxy)-5,6,7,8-tetrahydropyrido[3,4-d]pyrimidin-4-yl)-1-((E)-4-(dimethylamino)but-2-enoyl)piperazin-2-yl)acetonitrile]",C (“C”>50% POC),0.0001 to 1 µM,
"C=CC(=O)N1CCN(c2nc(OC[C@@H]3CCCN3C)nc3c2CCN(c2cccc(C)c2C(F)(F)F)C3)CC1CC#N (stereo partly drawn) [Example 265, 2-(1-acryloyl-4-(7-(3-methyl-2-(trifluoromethyl)phenyl)-2-(((S)-1-methylpyrrolidin-2-yl)methoxy)-5,6,7,8-tetrahydropyrido[3,4-d]pyrimidin-4-yl)piperazin-2-yl)acetonitrile]",C (“C”>50% POC),0.0001 to 1 µM,
"C=CC(=O)N1CCN(c2nc(OC(C)CN(C)C)nc3c2CCN(c2cc(O)cc4ccccc24)C3)CC1 (stereo not drawn) [Example 11, 1-(4-(2-((1-(dimethylamino)propan-2-yl)oxy)-7-(3-hydroxynaphthalen-1-yl)-5,6,7,8-tetrahydropyrido[3,4-d]pyrimidin-4-yl)piperazin-1-yl)prop-2-en-1-one]",C (“C”>50% POC),0.0001 to 1 µM,
"C=CC(=O)N1CCN(c2nc(OC[C@@H]3CCCN3CC(=O)N(C)C)nc3c2CCN(c2cccc4ccccc24)C3)CC1CC#N (stereo partly drawn) [Example 397, 2-((2S)-2-(((4-(4-acryloyl-3-(cyanomethyl)piperazin-1-yl)-7-(naphthalen-1-yl)-5,6,7,8-tetrahydropyrido[3,4-d]pyrimidin-2-yl)oxy)methyl)pyrrolidin-1-yl)-N,N-dimethylacetamide]",C (“C”>50% POC),0.0001 to 1 µM,
"C=CC(=O)N1CCN(c2nc(OCCCN3C[C@@H]4C[C@H]3CO4)nc3c2CCN(c2cc(O)cc4ccccc24)C3)CC1 [Example 104, 1-(4-(2-(3-((1 S,4S)-2-oxa-5-azabicyclo[2.2.1]heptan-5-yl)propoxy)-7-(3-hydroxynaphthalen-1-yl)-5,6,7,8-tetrahydropyrido[3,4-d]pyrimidin-4-yl)piperazin-1-yl)prop-2-en-1-one]",C (“C”>50% POC),0.0001 to 1 µM,
"C=CC(=O)N1CCN(c2nc(OC[C@@H]3[C@H](F)CCN3C)nc3c2CCN(c2cccc4ccccc24)C3)C[C@@H]1CC#N [Example 438, 2-((S)-1-acryloyl-4-(2-(((2R,3R)-3-fluoro-1-methylpyrrolidin-2-yl)methoxy)-7-(naphthalen-1-yl)-5,6,7,8-tetrahydropyrido[3,4-d]pyrimidin-4-yl)piperazin-2-yl)acetonitrile]",C (“C”>50% POC),0.0001 to 1 µM,
"C=CC(=O)N1C[C@H](C)N(c2nc(OC[C@@H]3CCCN3C)nc3c2CCN(c2cc(O)cc4ccccc24)C3)C[C@H]1C [Example 336, 1-[(2R,5S)-4-[7-(3-hydroxy-1-naphthyl)-2-[[(2S)-1-methylpyrrolidin-2-yl]methoxy]-6,8-dihydro-5H-pyrido[3,4-d]pyrimidin-4-yl]-2,5-dimethyl-piperazin-1-yl]prop-2-en-1-one]",C (“C”>50% POC),0.0001 to 1 µM,
"C=CC(=O)N1CCN(c2nc(OC[C@@H]3CCCN3C)nc3c2CCN(c2ccc(F)cc2C(F)(F)F)C3)CC1CC#N (stereo partly drawn) [Example 412, 2-(1-acryloyl-4-(7-(4-fluoro-2-(trifluoromethyl)phenyl)-2-(((S)-1-methylpyrrolidin-2-yl)methoxy)-5,6,7,8-tetrahydropyrido[3,4-d]pyrimidin-4-yl)piperazin-2-yl)acetonitrile]",C (“C”>50% POC),,0.0001 to 1 µM
"C=CC(=O)N1CCN(c2nc(OC[C@@H]3C[C@@H](F)CN3C)nc3c2CCN(c2cccc4ccccc24)C3)C[C@@H]1CC#N [Example 306, 2-[(2S)-4-[2-[[(2S,4R)-4-fluoro-1-methyl-pyrrolidin-2-yl]methoxy]-7-(1-naphthyl)-6,8-dihydro-5H-pyrido[3,4-d]pyrimidin-4-yl]-1-prop-2-enoyl-piperazin-2-yl]acetonitrile]",C (“C”>50% POC),0.0001 to 1 µM,
